From patent publication US11214803B2, “Modulators of YAP1 expression” (Ionis Pharmaceuticals, Inc., priority 2019, dated 2022)
Strand notation (5' to 3'): a small letter for the sugar, then the base; units joined by * are phosphorothioate-linked, units joined directly phosphodiester-linked; [ ] holds rarer units or linkages, { } end groups; capitals alone tell only the bases. e = 2'-O-(2-methoxyethyl) (MOE); k = constrained ethyl (cEt); [5mC] = 5-methylcytosine; d = 2'-deoxy (DNA)

System: Yap1 mRNA
Assay: Dose-dependent inhibition of human Yap1 in SNU-449 cells (Example 9, RTS36584)
Assay type: cell-based
Conditions: free uptake; for % UTC (Yap1 mRNA): approximately 48 hours; for IC50: linear regression on a log/linear plot
Procedure, shortened: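 Read-out was Yap1 mRNA (primer-probe RTS36584) normalised to total RNA by RIBOGREEN, given as % of untreated cells, with IC50 fitted by linear regression of log/linear data. Oligonucleotides were dosed by free uptake to SNU-449 cells, 10,000/well, for ~48 h.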

Row | Substance | % UTC (Yap1 mRNA) (31.3 nM) | % UTC (Yap1 mRNA) (125.0 nM) | % UTC (Yap1 mRNA) (500.0 nM) | % UTC (Yap1 mRNA) (2000.00 nM) | IC50
1 | 1198356 (kT*kA*kA*dA*dG*dT*dG*dT*dA*dT*dG*dT*k[5mC]*eA*kG*eA; antisense) [compound 1198356] | 85 % UTC | 30 % UTC | 7 % UTC | 1 % UTC | 100 nM
2 | 1198805 (kA*kT*dT*dG*dT*d[5mC]*dT*d[5mC]*dA*dT*dG*k[5mC]*e[5mC]*kT*eT*kA; antisense) [compound 1198805] | 61 % UTC | 42 % UTC | 20 % UTC | 7 % UTC | 100 nM
3 | 1198422 (k[5mC]*dT*dT*dA*dT*dA*dT*dG*dG*dT*dT*kT*eT*kG*eT*kG) [compound 1198422] | 88 % UTC | 60 % UTC | 30 % UTC | 19 % UTC | 200 nM
4 | 1198371 (kA*dT*dT*dG*dT*d[5mC]*dT*d[5mC]*dA*dT*dG*k[5mC]*e[5mC]*kT*eT*kA; antisense) [compound 1198371] | 85 % UTC | 66 % UTC | 46 % UTC | 21 % UTC | 300 nM
5 | 1198557 (kA*kT*kA*dT*dT*dA*dG*dA*dG*dT*dA*dT*kG*kT*kG*eG; antisense) [compound 1198557] | 81 % UTC | 52 % UTC | 26 % UTC | 11 % UTC | 200 nM
6 | 1198438 (kT*dG*dT*dA*dT*dG*dT*d[5mC]*dA*dG*dA*kA*eG*kA*eG*kT) [compound 1198438] | 62 % UTC | 28 % UTC | 7 % UTC | 2 % UTC | 40 nM
7 | 1198347 (kG*kT*kA*dA*dT*dA*dT*dT*dG*d[5mC]*dA*dA*kT*e[5mC]*kT*eG) [compound 1198347] | 67 % UTC | 54 % UTC | 24 % UTC | 8 % UTC | 100 nM
8 | 1198550 (kA*kT*kA*dT*dG*dG*dA*dA*dA*dT*dT*dG*kT*k[5mC]*kT*e[5mC]) [compound 1198550] | 73 % UTC | 56 % UTC | 30 % UTC | 13 % UTC | 200 nM
9 | 1198529 (kT*kT*dA*dA*dA*dG*dT*dG*dT*dA*dT*eG*kT*e[5mC]*kA*eG; antisense) [compound 1198529] | 86 % UTC | 69 % UTC | 37 % UTC | 16 % UTC | 300 nM
10 | 1198212 (kT*kA*dT*dT*dA*dG*dA*dG*dT*dA*dT*eG*eT*eG*kG*k[5mC]) [compound 1198212] | 74 % UTC | 35 % UTC | 10 % UTC | 2 % UTC | 100 nM
11 | 1097247 (kT*kA*kA*dA*dG*dT*dG*dT*dA*dT*dG*dT*d[5mC]*kA*kG*kA; antisense) [compound 1097247] | 58 % UTC | 28 % UTC | 8 % UTC | 2 % UTC | 40 nM
12 | 1200789 (G_{ks}G_{ks}A_{ks}A_{ds}A_{ds}U_{ys}T_{ds}G_{ds}T_{ds}^{m}C_{ds}T_{ds}^{m}C_{ds}A_{ds}T_{ks}G_{ks}^{m}C_{k}; as printed in the source, key not given here) [compound 1200789] | 60 % UTC | 32 % UTC | 15 % UTC | 5 % UTC | 50 nM
